Values of other authors in publication PMC5526139 (Xenobiotica; the Fate of Foreign Compounds in Biological …, 2016).

Parameters: method as in Zhang et al., 2011
Details: ref Zhang et al., 2011

In the case of `CC(O)Cn1c(=O)c(Oc2ccc(F)cc2F)cc2cnc(NC(C)CO)nc21` (centres unmarked) [6-(2,4-difluorophenoxy)-2-[(1-hydroxypropan-2-yl)amino]-8-(2-hydroxypropyl)-7H,8H-pyrido[2,3-d]pyrimidin-7-one], the “half-life in Phase 1 clinical trial” value (man) is given as 0.7 h and the “predicted half-life in man” value (prediction before the clinical trial) is given as 6 h.
